The values that follow come from US12616192B2, “Compositions and methods for preserving or increasing platelet function” (Washington University, priority 2021, dated 2026).

The test system of assay [1] is platelets. The following applies: rats fed taurine; cited from earlier work.
In assay [2] the test system is platelets. The following applies: in vitro taurine addition; cited from earlier work.
Assay [3] relates to platelet concentrates (CS-PLT). The experiment in a line: occlusive clot formation in a collagen-coated stenotic microfluidic chamber (microfluidic model of occlusion). Type of assay: cell-based. The following applies: for time to occlude the microfluidic channel versus non-supplemented CS-PLT: 500 μM taurine at the beginning of storage. On the procedure: Next, the ability of the platelet concentrates to form an occlusive clot against an arterial pressure head in a stenotic microfluidic chamber coated with collagen was analyzed (FIG. 2). The important variable/metric extracted from this platelet function is the occlusion area under the curve, or OAUC; a larger OAUC implies faster and more robust occlusion, and thus improved hemostatic platelet function.
To determine if this was the case, experiments were performed to supplement CS-PLT with taurine during storage, with the hypothesis that the supplemental (or “extra”) taurine would lead to inhibition of aggregation, as similar to the aforementioned reports from the literature. Next, the platelet concentrates were supplemented at the beginning of storage with 500 μM taurine, and assayed for alterations in function using a microfluidic model of occlusion.

The subject of assay [4] is platelets. The following applies: cited from earlier work.

Like-named read-outs stand apart in the source and are kept apart here.

With `NCCS(=O)(=O)O` [taurine, 2-aminoethanesulfonic acid], the “ex vivo platelet aggregation” value in the assay on platelets [1] is “reduced platelet aggregation”; in the assay on platelets [4] (1989 study, taurine supplementation in humans), “reduced aggregation”; with platelets [4] (2010 study, healthy human donors that drank taurine-containing solutions), “increased ex vivo aggregation”. Further, the platelet aggregation entry with platelets [2] is reported as “inhibit platelet aggregation”. For the same compound, the “platelet aggregation (shift of occlusion curves, OAUC)” value in assay [3] (CS-PLT supplemented with 500 μM taurine at the beginning of storage (TaurSTORAGE)) is “increased platelet aggregation”. The “time to occlude the microfluidic channel versus non-supplemented CS-PLT” value in assay [3] (D7 CS-PLT) and in assay [3] (D14 CS-PLT) was “half of the time” throughout. Also, in assay [3] (D14 non-supplemented CS-PLT, exogenous taurine 500 μM added just prior to assessment (TaurASSAY)), the occlusion curve phenotype entry is “middle phenotype”. Further, the “hemostatic function under physiologically relevant flow” value in assay [3] (taurine supplementation during platelet concentrate storage) was “robustly increases hemostatic function”.
